“And” between values parts separate entries of the source, which are not always exact repeats. Identical values can stand only once. Residues, ends and D or L forms follow the SMILES beside them.
What was measured:
physchem = assay type: physicochemical
Description: EAK16 peptide stock solutions were prepared at a concentration of approximately 0.57 mM (1 mg/ml) in water. The molecular weight of EAK16 is 1,760. […] The concentration was determined by the ninhydrin methods using internal controls.

PC12NGF = assay: Cell attachment to biopolymer sheets, normal or Ca++ and Mg++ free medium (Table 6); assay type: cell-based, rat; set-up: key: ++++: strong attachment; +++: moderate attachment; ++: weak attachment; +/−: little or no attachment
Description: (§1) Cells were pretreated in serum-free medium containing 30 μg/ml cyclohexamide for 2 hours before introduction to the peptide membranes. The cells used for the calcium and magnesium-free condition were pre-equilibrated in Ca^++ and Mg^++ free medium containing 5 mM EDTA for 15 minutes before introduction to the peptide membranes. Cells were allowed to attach to the peptide membranes for 30 minutes, 1 and 8 hours at 37° C. The attached cells were shaken for […] on a rotary rocker at 60 r.p.m., then scored under phase contrast microscopy.

PC12 = assay: as above; assay type: cell-based, rat; set-up: key: ++++: strong attachment; +++: moderate attachment; ++: weak attachment; +/−: little or no attachment
Description: as §1

[1] = Ions tested for effectiveness at inducing membrane formation; conditions of membrane formation; assay type: physicochemical
Description: Various metal cations were tested for effectiveness at inducing membrane formation from EAK16. […] The order of effectiveness of the monovalent cations appears to be Li^+>Na^+>K^+>Cs^+. Cs^+ produces the least amount of membranes and in addition, yields nonmembranous precipitates. The effectiveness of the monovalent cations appears to correlate inversely with the crystal radii of the ions: Li^+ (0.6 Å), Na^+ (0.95 Å), K^+ (1.33 Å), and Cs^+ (1.69 Å) (Pauling, 1960). A correlation is also seen with the hydrated radii of the ions: Li^+ (3.4 Å), Na^+ (2.76 Å), K^+ (2.32 Å), and Cs^+ (2.28 Å), and with the order of enthalpies of the monovalent cations (Pauling, 1960). It is not known at present if the monovalent metal cations act as a catalyst or if they are incorporated into the membrane. […] Thus, membrane formation appears to be independent of salt concentration over this wide range. Salt concentrations of less than 5 mM may also induce membrane formation, but at a slower rate. The initial concentration of the peptide is a significant factor in the size and thickness of the membrane formed. In general, the higher the peptide concentration, the higher the extent of membrane formation. Membranes can form from initial peptide concentrations as low as 0.5 mM or 1 mg/ml. However, membranes formed at higher initial peptide concentrations (about 10 mg/ml) are thicker and thus, likely to be stronger. Therefore, it is preferable when producing the membranes to add peptide to a salt solution, rather than to add salt to a peptide solution. Formation of the membranes is very fast, on the order of a few minutes, and seems to be irreversible (see below). The process is unaffected by pH≦12 (the peptides tend to precipitate out at pH above 12), and by temperature. The membranes can form at temperatures in the range of 4 to 90° C. Formation of the membranes is inhibited by the presence of divalent metal cations at concentrations equal to or greater than 100 μM, which promote unstructured aggregation rather than membrane formation, and by sodium dodecyl sulfate (SDS) at a concentration of at least 0.1%.

3T3 fibroblast cells = assay: Cell attachment to biopolymer sheets, with serum or serum-free + cyclohexamide (Table 5); assay type: cell-based, mouse; set-up: key: ++++: strong attachment; +++: moderate attachment; ++: weak attachment; +/−: little or no attachment
Description: 3T3 fibroblast cells were introduced to membranes of RAD16 and EAK16 in normal serum-containing medium or in serum-free medium containing 30 μg/ml cyclohexamide (cells used for this condition were pretreated in this medium for 2 hours before plating). Cells were allowed to attach to the membranes for 30 minutes, 1 and 8 hours at 37° C. The attached cells were shaken for 10 minutes on a rotary rocker at 60 r.p.m., then scored under phase contrast microscopy. The decrease in cells attached to the membrane in the serum-free condition reflects cell loss due to serum deprivation.

[2] = assay type: physicochemical
Description: Once formed, the macroscopic membranes are stable in a variety of aqueous solutions, including water, phosphate-buffered saline (PBS), tissue culture medium, serum, and also in ethanol, and can be transferred to and stored in any of these liquids. […] The membranes can be transferred from one solution to another using a solid support such as a spatula. They can be broken by cutting, tearing or shearing.
The stability of the membranes was also tested under a range of temperature, pH and chemical conditions. For these experiments, membranes were formed by adding 20 μl of a 0.5 mM stock solution of EAK16 to 0.5 ml of PBS, and transferred into water or other solutions at test conditions.
The membranes could be frozen and thawed, although care was required in handling the frozen membranes which were brittle. In boiling water, the membranes tended to be sheared by the mechanical agitation. […] (FIGS. 9A and 9B). […] Such strong thermal stability of the defined β-sheet structure of EAK16 is unusual for a small peptide. For example, these findings contrast with the α-helix-forming sixteen residue (Ala, Glu, Lys)-containing peptides studied previously (Marqusee and Baldwin, 1987).
The EAK16 membranes were also tested in water at pH 1.5, 3, 7 and 11 at room temperature for at least a week and at 95° C. for about 4 hours. The membranes were unaffected at these pH. […] It is possible that the complementary interactions between the Glu and Lys side-chains are strong even when the carboxyl groups of the Glu residues have been protonated at pH 1.5 and 3, due to their ability to form hydrogen bonds even when protonated.
The EAK16 membranes were further tested for resistance to chemical denaturation under the following conditions: 1% and 10% sodium dodecyl sulfate (SDS); 1, 2, 3, 4, 5, 6 and 7 M guanidine-HCl; and 1, 2, 3, 4, 5, 6, 7 and 8 M urea. […] The membranes were also tested at 95° C. for 4 hours in 10% SDS; 7 M guanidine-HCl; and at 8 M urea.

What does the source list for CC(=O)N[C@@H](C)C(=O)N[C@@H](CCC(=O)O)C(=O)N[C@@H](C)C(=O)N[C@@H](CCC(=O)O)C(=O)N[C@@H](C)C(=O)N[C@@H](CCCCN)C(=O)N[C@@H](C)C(=O)N[C@@H](CCCCN)C(=O)N[C@@H](C)C(=O)N[C@@H](CCC(=O)O)C(=O)N[C@@H](C)C(=O)N[C@@H](CCC(=O)O)C(=O)N[C@@H](C)C(=O)N[C@@H](CCCCN)C(=O)N[C@@H](C)C(=O)N[C@@H](CCCCN)C(N)=O [EAK16] (Ac-AEAEAKAKAEAEAKAK-NH2)?
solubility (physchem; maximal solubility in water): 3000 µM and ~5000 µg/mL; solubility (physchem; solubility in 23% actonitrile): ≤ 6000 µM and ~10000 µg/mL; cell attachment (PC12NGF; 30 min, Ca^++ & Mg^++ free, EDTA serum-free + Cyclohex): ++++; cell attachment (PC12NGF; 30 min, Normal Ca^++ & Mg^++ serum-free + Cyclohex): ++++; cell attachment (PC12NGF; 60 min, Ca^++ & Mg^++ free, EDTA serum-free + Cyclohex): ++++; cell attachment (PC12NGF; 60 min, Normal Ca^++ & Mg^++ serum-free + Cyclohex): ++++; cell attachment (PC12; PC12, 30 min, Ca^++ & Mg^++ free, EDTA serum-free + Cyclohex): ++++; cell attachment (PC12; PC12, 30 min, Normal Ca^++ & Mg^++ serum-free + Cyclohex): ++++; cell attachment (PC12; PC12, 60 min, Ca^++ & Mg^++ free, EDTA serum-free + Cyclohex): ++++; cell attachment (PC12; PC12, 60 min, Normal Ca^++ & Mg^++ serum-free + Cyclohex): ++++; effect of divalent cations on membrane formation [1]: divalent cations primarily induce unstructured aggregates; effect of monovalent metal cations on membrane formation [1]: monovalent metal cations induce membrane formation; order of effectiveness of the monovalent cations [1]: Li^+>Na^+>K^+>Cs^+; effect of anions and organic ions on membrane formation ([1]; acetate, Cl^−, SO4^−2, PO4^−2, NH4^+ and Tris-Cl): not found to induce membrane formation; cell attachment (3T3 fibroblast cells; 3T3, 30 min, medium with serum, no cyclohexamide): ++++; cell attachment (3T3 fibroblast cells; 3T3, 30 min, serum-free medium, + cyclohexamide): ++++; cell attachment (3T3 fibroblast cells; 3T3, 60 min, medium with serum, no cyclohexamide): ++++; cell attachment (3T3 fibroblast cells; 3T3, 60 min, serum-free medium, + cyclohexamide): ++++; cell attachment (3T3 fibroblast cells; 3T3, 8 hrs, medium with serum, no cyclohexamide): ++++; cell attachment (3T3 fibroblast cells; 3T3, 8 hrs, serum-free medium, + cyclohexamide): ++; stability of membranes and filaments in liquids [2]: stable in aqueous solution, in serum, and in ethanol; stability of membranes in water or PBS [2]: stable in water or PBS for at least a week; stability of membranes in water over temperature [2]: stable in water over a wide range of temperatures: up to 95° and at 4°, −20°, and −80 °C; resistance of membranes to chemical denaturation at room temperature ([2]; 1% and 10% SDS, 1-7 M guanidine-HCl, 1-8 M urea, room temperature at least 4 days): remained stable; membranes in 8 M urea at 95° C. ([2]; 95° C. for 4 hours, 8 M urea): dissolved; membranes in SDS and 7 M guanidine-HCl at 95° C. ([2]; 95° C. for 4 hours, 10% SDS, 7 M guanidine-HCl): remained intact; pH at which membranes and filaments are stable ([2]; alkaline and acidic pH): 1.5-11
